How the values were obtained:
[1] = tested on: TNF-α secreted by synoviocyte; test: Content of TNF-α in culture supernatant of synoviocyte of RA model rats given test compound; type: in vivo; conditions: rat RA model, dose 30 mg/kg.2d; normal control 0.38 ± 0.027, NaCl 0.74 ± 0.098
Excerpt: (§1) Take Compound 1-50 prepared as per the method according to the present invention and employ the method provided in Reference to prepare model, group drugs and prepare culture supernatant of rat synoviocyte.
(§2) Employ the method provided in Reference to investigate the effects of the test compounds on the synoviocyte to secrete TNF-α and PGE2. Employ the method provided in Reference to investigate the effects of the test compounds on the synoviocyte to secrete IL-1β.
(§3) The experimental data of the test compound 1-50 at a dose of 30 mg/kg.2d as well as the normal control and NaCl group are as follows: […]

[2] = tested on: IL-1β secreted by synoviocyte; test: Content of IL-1β in culture supernatant of synoviocyte of RA model rats given test compound; type: in vivo; conditions: rat RA model, dose 30 mg/kg.2d; normal control 0.16 ± 0.034, NaCl 0.49 ± 0.136
Excerpt: as §1, §2, §3

[3] = tested on: PGE2 secreted by synoviocyte; test: Content of PGE2 in culture supernatant of synoviocyte of RA model rats given test compound; type: in vivo; conditions: rat RA model, dose 30 mg/kg.2d; normal control 8.34 ± 1.29, NaCl 32.44 ± 10.32
Excerpt: as §1, §2, §3

cancer stem cells = test: Survival rate of cancer stem cells after test compound is added (flow cytometry, Annexin V-FITC/PI, clinical specimen); type: cell-based, patient
Excerpt: Take fresh or cryopreserved clinical specimen (acute myelogenous leukemia (AML, marker is CD34^+/CD38^+), chronic myelogenous leukemia (CML, Ph+/CD34+/CXCR4+), chronic lymphocytic leukemia (CLL,CD133+/CD19−/CD38−), skin cancer (CD34+), breast cancer (CD44+/CD24−/ESA+), ovarian cancer (CD44+/CD117+), brain tumor (CD133+) prostate cancer (CD44+/CD24−), head-neck squamous cell carcinoma (CD44+), laryngeal cancer (CD133+), pancreatic cancer (ESA+/CD44+/CD24+), retinoblastoma (ABCG2/ALDH1), Children hepatoblastoma (CD34+/THY1+/c-kit+), liver cancer (CD133+), malignant melanoma (CD133+), colorectal cancer (EpCAM^high/CD44+), colon adenocarcinoma (CD44^high), glioma (ABCG-2/BCRP1), gastrointestinal tumor (ABCG-2/BCRP1), nasopharynx cancer (ABCG2), brain glioma (Dlk-1/Pref-1), gastric cancer (CD45+), lung adenocarcinoma (Sca-1/CD45-/Pecam-/CD34+), lung cancer (CD133+CD34+CD44+)) of patient. Take the acute myelogenous leukemia as the example, conduct density gradient centrifugation with Ficoll and take out the middle mononuclear cells, re-suspend it with serum-free IMDM after centrifuged. Adjust the concentration of cells into 1×10^6/mL and lay 24-well plate with 1 mL in each well, and then treat 18 hours with the compound to select with corresponding concentration. Collect the cells and centrifuge them at 1500 rps for 8 minutes, re-suspend the precipitation with […], mark the antibodies related to leukemia stem cell, avoid light to incubate 30 minutes at room temperature and then centrifuge it at 1500 rps, then wash away the unbound antibody CD34^+CD38^+. Re-suspend it with 100 μl 1× Binding Buffer and add respectively 5 μl Annexin V-FITC and PI, then avoid light to incubate 15 minutes before add 200 μl 1× Binding Buffer, then use flow cytometry to examine the marked apoptosis within one hour.

CN(C)C[C@@H]1C(=O)O[C@H]2[C@H]1CCC1(CC1)[C@@H]1CCC3(CC3)[C@H]21.Cl [Compound 28]
Content of TNF-α in culture supernatant of synoviocyte (x ± s) [1]: 0.47 ± 0.056 ng/mL
Content of IL-1β in culture supernatant of synoviocyte (x ± s) [2]: 0.31 ± 0.067 ng/mL
Content of PGE2 in culture supernatant of synoviocyte (x ± s) [3]: 18.92 ± 1.98 ng/mL
Survival rate (%) Stem cells (cancer stem cells; AML, 10.0 μM): 87%
Survival rate (%) Stem cells (cancer stem cells; AML, 20.0 μM): 76%
Survival rate (%) Stem cells (cancer stem cells; Brain glioma, 10.0 μM): 82%
Survival rate (%) Stem cells (cancer stem cells; Brain glioma, 20.0 μM): 76%
Survival rate (%) Stem cells (cancer stem cells; Brain tumor, 10.0 μM): 82%
Survival rate (%) Stem cells (cancer stem cells; Brain tumor, 20.0 μM): 73%
Survival rate (%) Stem cells (cancer stem cells; Breast cancer, 10.0 μM): 81%
Survival rate (%) Stem cells (cancer stem cells; Breast cancer, 20.0 μM): 75%
Survival rate (%) Stem cells (cancer stem cells; CLL, 10.0 μM): 82%
Survival rate (%) Stem cells (cancer stem cells; CLL, 20.0 μM): 73%
Survival rate (%) Stem cells (cancer stem cells; CML, 10.0 μM): 85%
Survival rate (%) Stem cells (cancer stem cells; CML, 20.0 μM): 77%
Survival rate (%) Stem cells (cancer stem cells; Children hepatoblastoma, 10.0 μM): 85%
Survival rate (%) Stem cells (cancer stem cells; Children hepatoblastoma, 20.0 μM): 77%
Survival rate (%) Stem cells (cancer stem cells; Colon adenocarcinoma, 10.0 μM): 82%
Survival rate (%) Stem cells (cancer stem cells; Colon adenocarcinoma, 20.0 μM): 74%
Survival rate (%) Stem cells (cancer stem cells; Colorectal cancer, 10.0 μM): 81%
Survival rate (%) Stem cells (cancer stem cells; Colorectal cancer, 20.0 μM): 75%
Survival rate (%) Stem cells (cancer stem cells; Gastric cancer, 10.0 μM): 79%
Survival rate (%) Stem cells (cancer stem cells; Gastric cancer, 20.0 μM): 72%
Survival rate (%) Stem cells (cancer stem cells; Gastrointestinal tumor, 10.0 μM): 82%
Survival rate (%) Stem cells (cancer stem cells; Gastrointestinal tumor, 20.0 μM): 76%
Survival rate (%) Stem cells (cancer stem cells; Glioma, 10.0 μM): 85%
Survival rate (%) Stem cells (cancer stem cells; Glioma, 20.0 μM): 79%
Survival rate (%) Stem cells (cancer stem cells; Head and neck squamous cell carcinomas, 10.0 μM): 81%
Survival rate (%) Stem cells (cancer stem cells; Head and neck squamous cell carcinomas, 20.0 μM): 75%
Survival rate (%) Stem cells (cancer stem cells; Laryngeal cancer, 10.0 μM): 85%
Survival rate (%) Stem cells (cancer stem cells; Laryngeal cancer, 20.0 μM): 77%
Survival rate (%) Stem cells (cancer stem cells; Liver cancer, 10.0 μM): 82%
Survival rate (%) Stem cells (cancer stem cells; Liver cancer, 20.0 μM): 73%
Survival rate (%) Stem cells (cancer stem cells; Lung adenocarcinoma, 10.0 μM): 88%
Survival rate (%) Stem cells (cancer stem cells; Lung adenocarcinoma, 20.0 μM): 81%
Survival rate (%) Stem cells (cancer stem cells; Lung cancer, 10.0 μM): 87%
Survival rate (%) Stem cells (cancer stem cells; Lung cancer, 20.0 μM): 76%
Survival rate (%) Stem cells (cancer stem cells; Malignant melanoma, 10.0 μM): 84%
Survival rate (%) Stem cells (cancer stem cells; Malignant melanoma, 20.0 μM): 78%
Survival rate (%) Stem cells (cancer stem cells; Nasopharynx cancer, 10.0 μM): 85%
Survival rate (%) Stem cells (cancer stem cells; Nasopharynx cancer, 20.0 μM): 77%
Survival rate (%) Stem cells (cancer stem cells; Ovarian cancer, 10.0 μM): 85%
Survival rate (%) Stem cells (cancer stem cells; Ovarian cancer, 20.0 μM): 79%
Survival rate (%) Stem cells (cancer stem cells; Pancreatic cancer, 10.0 μM): 86%
Survival rate (%) Stem cells (cancer stem cells; Pancreatic cancer, 20.0 μM): 78%
Survival rate (%) Stem cells (cancer stem cells; Prostate cancer, 10.0 μM): 84%
Survival rate (%) Stem cells (cancer stem cells; Prostate cancer, 20.0 μM): 78%
Survival rate (%) Stem cells (cancer stem cells; Retinoblastoma, 10.0 μM): 84%
Survival rate (%) Stem cells (cancer stem cells; Retinoblastoma, 20.0 μM): 80%
Survival rate (%) Stem cells (cancer stem cells; Skin cancer, 10.0 μM): 84%
Survival rate (%) Stem cells (cancer stem cells; Skin cancer, 20.0 μM): 78%

Source: patent publication US10463644B2, “Uses of sesquiterpene lactone compounds and their derivatives in drugs preparation” (ACCENDATECH, priority 2013, dated 2019)
